From US10688032B2, “Emulsions having UV sunscreen factors and carnosines” (Symrise AG, priority 2015, dated 2020)

Tests used:
[1] = system: type I collagen; test: Inhibition of the glycation of collagen (Schiff's bases, fluorescence at 430 nm); assay type: biochemical; conditions: with glucose, 21 days at 45° C.; control with glucose 100, control without glucose 46
Experimental: The suspensions were then centrifuged and the content of Schiff's bases in the supernatant liquid was determined by fluorescence measurement at 430 nm. The results are again based on the control as standards (without extract and without glucose).

[2] = system: glucose-6-phosphate dehydrogenase (G6PDH); test: G6PDH activity on human fibroblasts (enzymatic method of Okada); assay type: cell-based; conditions: for G6PDH after 3 d / G6PDH after 6 d: conc. 0.001 % w/v, compared to blank sample = 100
Excerpt: The enzyme glucose-6-phosphate dehydrogenase (G6PDH) catalyzes the first step of the so-called “pentose pathway”, in which an important DNA component, namely deoxyribose, is formed. Glucose 6-phosphate (G6P) is thereby converted into 6-phosphogluconate (6PG) by means of G6PDH. At the same time, the coenzyme NADP required thereby is reduced to NADPH2, which in turn is able to catalyze a large number of other biological reactions such as, for example, the recycling of glutathione or lipid synthesis. Reduced glutathione protects many enzymes which have SH groups and cells against oxidative stress, such as, for example, the action of UV. The G6PDH content is thus an important parameter for cell protection and skin renewal. G6PDH activity was determined in vitro on human fibroblasts by the enzymatic method of Okada, while the DNA content was determined by the Desaulniers method. The results of 3 series of measurements with triple determination are given in %-rel. compared to a blank sample.

[3] = system: human fibroblasts; test: Stimulation of the synthesis of dermal macromolecules (GAG) in collagen gel containing human fibroblasts; assay type: cell-based; conditions: 0.5% by weight FCS + 0.01% by weight substance; for Area 7 days / Area 14 days / Density 14 days: collagen gel; for Density 14 days: relative density 0=clear or white, 1=black; for GAG content 7 days / GAG content 14 days: relative value of the gray stage (0=white to 255=black), perifibroblast area
Experimental: The measuring method is based on staining macromolecules in a culture of human fibroblasts which, with type I collagen, forms a collagen gel or collagen lattice fibers. Certain regions of those fibers are quantified by means of staining reagents for the proportion of the mentioned macromolecules.
For that purpose, a suspension of human fibroblasts was mixed with a solution of type I collagen (1-2 mg/ml). This mixture was incubated in a defined nutrient medium (DMEM=Dulbecco minimum essential medium, Life Technologie Sarl) comprising 0.5 or 2% by weight fetal calf serum (FCS) for 14 days at 37° C. in a 5% CO2 atmosphere in Petri dishes (5 ml per dish) with the addition of different concentrations of the plant extracts to be tested.
The kinetics of the collagen gel […] was determined 2 to 3 times per week by measuring two perpendicular diameters on each collagen gel using a microscope with an image analysis system. The size of the area is shown in cm^2 in Table 8. After incubation for 14 days, the density of the collagen gel was determined by image analysis with a light source of visible light, by comparatively analyzing different gray stages. This is a relative determination of the density (0=clear or white and 1=black), which cannot be given a unit.
After an incubation period of 7 and 14 days, biopsies (tissue samples) were taken and histological sections of the collagen gel containing human fibroblasts were obtained. The synthesis of macromolecules was analyzed and quantified by the staining of glycosaminoglycan with PAS Alcian blue, for example from SIGMA, by the periodic acid-Schiff method (PAS) described in: Mowry R W, Anal. NY Adad. Sci. 106 Art 2, 402, 1963. The stimulation of the synthesis of macromolecules was evaluated in the immediate vicinity of fibroblasts. This zone is also referred to as the “perifibroblast area”.
The “perifibroblast” secretion, or the secretion of fibroblasts into the periphery, was quantified by an image analyzer by means of a microscope. Reactive structures in the “perifibroblast area” were detected, and the different gray stages were comparatively determined. The values of the gray stages were thereby subdivided from 0=white to 255=black. These parameters are directly proportional to the intensity of the synthesis of macromolecules and thus to the GAG content of the fibroblasts.
The results of the values of these parameters are shown in Table 3 below and are to be regarded directly as representative values for the synthesis activity of the fibroblasts. The content of GAGs is described as a relative value of the gray stage.

[4] = biological target: pancreas elastase (Sus scrofa, UniProt P00772); test: Inhibition of elastase activity; assay type: biochemical; conditions: 0.3% by weight; 30 minutes at room temperature; relative to control = 0%
Chain of pancreas elastase (P00772 27-266): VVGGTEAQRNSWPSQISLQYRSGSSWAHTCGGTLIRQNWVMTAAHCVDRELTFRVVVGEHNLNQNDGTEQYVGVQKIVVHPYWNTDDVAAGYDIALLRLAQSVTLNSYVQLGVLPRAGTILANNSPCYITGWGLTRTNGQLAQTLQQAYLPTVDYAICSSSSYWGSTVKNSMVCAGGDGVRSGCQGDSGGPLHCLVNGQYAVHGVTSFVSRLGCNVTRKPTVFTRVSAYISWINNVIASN
Experimental: In order to determine the effectiveness of the plant extract in inhibiting the release of elastase, pancreas elastase (a serine protease) was studied and, as substrate, elastin was labeled with a chromogenic synthetic substrate. The system was incubated with the active ingredients for 30 minutes at room temperature and then, after centrifugation, the optical density of the dye at 410 nm was determined. The amount of extracts used was 0.3% by weight. The results are given relative to a control as standard (=0%); a1-antitrypsin was used as the standard.

[5] = system: human fibroblasts and human keratinocytes; test: Inhibition of apoptosis induced by a deficiency of growth factors (cell count, BrdU ELISA of cytoplasmic DNA fragments); assay type: cell-based; conditions: for Content of DNA fragments / Cell count: conc. 0.001 % w/v; for Content of DNA fragments: BrdU in cytoplasmic DNA fragments, based on a million cells, control = 100; for Cell count: medium without fetal calf serum, in comparison to the control = 100
Experimental: The ability of carnosines to prevent apoptosis induced by a deficiency of growth factors in human skin cells was studied. These tests were carried out in vitro on human fibroblasts and human keratinocytes. The human cells were cultivated in a nutrient medium (DMEM=Dulbecco minimum essential medium from Life Technologie Sarl) with 10% fetal calf serum (from Dutcher). Bromodeoxyuridine (BrdU) was added to the nutrient medium; it was incorporated into the DNA and later served for detection of the DNA fragments in the cytoplasm. After an incubation period of two days, the nutrient medium was replaced by nutrient medium (DMEM) without fetal calf serum. The active substance to be tested was added. For comparison, a cell sample without active substance to be tested was incubated.
After a further incubation period of one or two days at 37° C., the cells were recovered by trypsinization according to the method of Dunnebacke and Zitcer described in: Cell and tissue culture, Ed.: J. Paul, Churchill Livingstone, 1975, p. 226. After the trypsinization, the cells were centrifuged and counted. Then the content of BrdU in the DNA fragments from the cytoplasm was determined by means of the ELISA test (ELISA kit from Roche). The content of BrdU is a measure of the DNA fragments which have passed from the nucleus, the cell core, into the cytoplasm. The results were based on a million cells and given in percent in comparison to the control.

[6] = system: human fibroblasts; test: DNA content of human fibroblasts (Desaulniers method); assay type: cell-based; conditions: conc. 0.001 % w/v, compared to blank sample = 100
Experimental: G6PDH activity was determined in vitro on human fibroblasts by the enzymatic method of Okada, while the DNA content was determined by the Desaulniers method. The results of 3 series of measurements with triple determination are given in %-rel. compared to a blank sample.

[7] = Biochem. J. 264(3), p. 863-869 (1989); cited from earlier work
[8] = Membran & Cell Biol. 12(1), p. 89-99 (1998); cited from earlier work

G6PDH after 3 d [2] [%-rel.] | G6PDH after 6 d [2] [%-rel.] | Elastase inhibition [4] [%] | SMILES | Inhibition of the glycation of collagen [1] [%] | Area 7 days [3] [cm2] | Area 14 days [3] [cm2] | Density 14 days [3] | GAG content 7 days [3] | GAG content 14 days [3] | Content of DNA fragments [5] [%] | Cell count [5] [%] | DNA after 3 d [6] [%-rel.] | DNA after 6 d [6] [%-rel.] | G6PDH activity (in words) [2] | capture of ROS [7] | apoptosis and content of free DNA fragments in the cytoplasm (in words) ([5]; human cell cultures) | capture of alpha-beta-unsaturated aldehydes [8]
104 | 109 | 28 | C[N+](C)(C)C[C@H](O)CC(=O)O.[Cl-] [Carnitine*HCl] | 65 | 9.9 | 5.8 | 0.25 | 11.8 | 13.3 | 88 | 118 | 106 | 118 | – | – | – | –
105 | 109 | 32 | NCCC(=O)N[C@@H](Cc1cnc[nH]1)C(=O)O [L-Carnosine] | 68 | 10.1 | 6.0 | 0.25 | 12.1 | 15.1 | 85 | 129 | 111 | 120 | – | – | – | –
89 | 85 | – | CCCCC(CC)COC(=O)C(C#N)=C(c1ccccc1)c1ccccc1 (centres unmarked) [Octocrinyl, reference compound] | – | – | – | – | – | – | – | – | 95 | 90 | – | – | – | –

More lines, now with the values behind:

SMILES | G6PDH after 3 d [2] [%-rel.] | G6PDH after 6 d [2] [%-rel.] | Elastase inhibition [4] [%] | Inhibition of the glycation of collagen [1] [%] | Area 7 days [3] [cm2] | Area 14 days [3] [cm2] | Density 14 days [3] | GAG content 7 days [3] | GAG content 14 days [3] | Content of DNA fragments [5] [%] | Cell count [5] [%] | DNA after 3 d [6] [%-rel.] | DNA after 6 d [6] [%-rel.] | G6PDH activity (in words) [2] | capture of ROS [7] | apoptosis and content of free DNA fragments in the cytoplasm (in words) ([5]; human cell cultures) | capture of alpha-beta-unsaturated aldehydes [8]
CCCCCCOC(=O)c1ccccc1C(=O)c1ccc(N(CC)CC)cc1O [Uvinul A, 2-(4-diethylamino-2-hydroxybenzoyl)-benzoic acid hexyl ester, reference compound] | 88 | 81 | – | – | – | – | – | – | – | – | – | 97 | 93 | – | – | – | –
NCCC(=O)N[C@@H](Cc1cnc[nH]1)C(=O)O [carnosine] | – | – | – | – | – | – | – | – | – | – | – | – | – | increases the activity of G6PDH production | capable of capturing ROS | counteracts apoptosis | able to capture alpha-beta-unsaturated aldehydes
